Counter-ions that a name gives are not always drawn.

The subject of one assay is apomorphine climbing. Put plainly: climbing mice assay (antipsychotic activity, apomorphine-induced climbing). Type of assay: in vivo, mice (CK-1 male). The conditions noted are these: Mus musculus, po, apomorphine 1.5 mg/kg sc challenge. How it is done:
Antipsychotic activity is determined in the climbing mice assay by a method similar to those described by P. Protais, et al., Psychopharmacol., 50, 1 (1976) and B. Costall, Eur. J. Pharmacol., 50, 39 (1978).
The subject CK-1 male mice (23-27 grams) are group-housed under standard laboratory conditions. The mice are individually placed in wire mesh stick cages (4"×4"×10") and are allowed one hour for adaptation and exploration of the new environment. Then apomorphine is injected subcutaneously at 1.5 mg/kg, a dose causing climbing in all subjects for 30 minutes. Compounds to be tested for antipsychotic activity are injected intraperitoneally or given oral doses at various time intervals, e.g. 30 minutes, 60 minutes, etc. prior to the apomorphine challenge at a screening dose of 10-60 mg/kg.
For evaluation of climbing, 3 readings are taken at 10, 20 and 30 minutes after apomorphine administration according to the following scale:
4 paws on bottom (no climbing)
2 paws on the wall (rearing)
4 paws on the wall (full climb)
Mice consistently climbing before the injection of apomorphine will be discarded.
With full-developed apomorphine climbing, the animals are hanging on to the cage walls, rather motionless, over longer periods of time. By contrast, climbs due to mere motor stimulation usually only last a few seconds.
The climbing scores are individually totaled (maximal score: 6 per mouse over 3 readings) and the total score of the control group (vehicle intraperitoneally--apomorphine subcutaneously) is set to 100%. ED50 values with 95% confidence limits, calculated by a Linear Regression Analysis, of some of the instant benzopyrrolobenzodiazepines as well as a standard antipsychotic agent are presented in Table 1.

For assay [1], the system named is phenylquinone induced writhing. The experiment in a line: phenyl-p-quinone writhing assay in mice (analgesia). It counts as in vivo. The conditions noted are these: Mus musculus, sc, dose for approximately 50% inhibition of writhing. From the text:
Some of the benzopyrrolobenzodiazepines and quinobenzodiazepines of the present invention are also useful as analgetics due to their ability to alleviate pain in mammals. […] Exptl. Biol Med., 95 729 (1957)]. Thus, for instance, the subcutaneous dose effecting an approximately 50% inhibition of writhing (ED50) in mice produced in this assay is as shown in Table 2.
(An intraperitoneal irritant provokes the stretching counted in writhing tests.)

Usually ED50 stands for the dose at which the effect has come halfway, by size or by number of responders. Lower therefore signals greater potency. For the compound `CN1CCN(C2=Nc3cc(Br)ccc3N3CCc4cccc2c43)CC1` [9-Bromo-6-(4-methyl-1-piperazinyl)-1,2-dihydrobenzo[b]pyrrolo[3,2,1-jk][1,4]benzodiazepine], in the assay on apomorphine climbing, the ED50 amounted to 30.8 mg/kg.

In the case of `CN1CCN(C2=Nc3cc(Cl)ccc3N3CCc4cccc2c43)CC1` [9-chloro-6-(4-methyl-1-piperazinyl)-1,2-dihydrobenzo[b]pyrrolo[3,2,1-jk][1,4]benzodiazepine], the 50% effect level in assay [1] (ED50) was put at a dose of 4.1 mg/kg.

`CN1CCN(C2=Nc3ccccc3-n3ccc4cc(Cl)cc2c43)CC1` [4-Chloro-6-(4-methyl-1-piperazinyl)benzo[b]pyrrolo[3,2,1-jk][1,4]benzodiazepine] had an ED50 in the assay on apomorphine climbing of 13.4 mg/kg.

On to `CCC(=O)O[C@](Cc1ccccc1)(c1ccccc1)[C@H](C)CN(C)C` [propoxyphene, reference compound], for which the ED50 in assay [1] came out at 3.9 mg/kg.

`CN1CCN(C2=Nc3cc(Cl)ccc3Nc3ccccc32)CC1` [clozapine, reference compound] gave a 50% effective dose (ED50) in the assay with apomorphine climbing of 23.2 mg/kg.

Turning to `Cc1ccc2c(c1)N=C(N1CCN(C)CC1)c1cccc3c1N2CC3` [9-Methyl-6-(4-methyl-1-piperazinyl)-1,2-dihydrobenzo[b]pyrrolo[3,2,1-jk][1,4]benzodiazepine], the ED50 in assay [1] worked out at 0.34 mg/kg; in the assay on apomorphine climbing, 25.5 mg/kg.

In the case of `CN1CCN(C2=Nc3cc(Br)ccc3-n3ccc4cccc2c43)CC1` [9-Bromo-6-(4-methyl-1-piperazinyl)benzo[b]pyrrolo[3,2,1-jk][1,4]benzodiazepine], the ED50 in assay [1] was 0.72 mg/kg; in the assay on apomorphine climbing, 13.5 mg/kg.

Consider `CN(C)CCN(C)C1=Nc2cc(Br)ccc2N2CCc3cccc1c32` [9-Bromo-6-[(2-dimethylamino)-N-methylethylamino]-1,2-dihydrobenzo[b]pyrrolo[3,2,1-jk][1,4]benzodiazepine Dimaleate salt], for which, in assay [1], the median effective dose (ED50) was determined as 8.1 mg/kg.

The values are drawn from patent publication US4663453A, “Benzo[b]pyrrolo[3,2,1-jk][1,4]benzodiazepines having dopamine receptor activity” (Hoechst-Roussel Pharmaceuticals Inc., priority 1985, dated 1987).
